Laboratory results taken from ChEMBL document CHEMBL3856234, “Development of Multifunctional Pyrimidinylthiourea Derivatives as Potential Anti-Alzheimer Agents” (J Med Chem, 2016).
Values after ≈ are worked out from the molar mass of the structure shown. Active and inactive are the calls of the source. No cut-off for these calls is given here.

Key:
Acetylcholinesterase = molecular target: T1, Acetylcholinesterase (Rattus norvegicus, UniProt P37136); test: Inhibition of rat cortex AChE using acetylthiocholine iodide as substrate measured after 20 mins by Ellman's method
T1 sequence (P37136 whole entry): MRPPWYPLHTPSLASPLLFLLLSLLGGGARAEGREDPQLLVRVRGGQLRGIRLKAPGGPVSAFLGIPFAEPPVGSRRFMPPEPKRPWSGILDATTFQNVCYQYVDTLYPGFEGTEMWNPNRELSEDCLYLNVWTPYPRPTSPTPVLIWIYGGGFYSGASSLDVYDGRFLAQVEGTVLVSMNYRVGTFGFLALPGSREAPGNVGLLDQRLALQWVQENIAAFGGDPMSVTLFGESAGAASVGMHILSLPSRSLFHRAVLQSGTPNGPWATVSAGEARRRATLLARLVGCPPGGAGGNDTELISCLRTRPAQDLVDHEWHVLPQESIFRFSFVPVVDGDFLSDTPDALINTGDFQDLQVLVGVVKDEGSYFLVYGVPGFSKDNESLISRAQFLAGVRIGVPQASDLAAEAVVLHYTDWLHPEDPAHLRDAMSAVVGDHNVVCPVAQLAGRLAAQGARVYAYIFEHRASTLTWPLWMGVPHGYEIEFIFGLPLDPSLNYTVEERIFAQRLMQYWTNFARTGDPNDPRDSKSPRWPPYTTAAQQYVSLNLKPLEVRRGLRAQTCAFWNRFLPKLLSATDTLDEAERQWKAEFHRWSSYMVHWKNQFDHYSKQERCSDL

[1] = molecular target: T2, Acetylcholinesterase (Rattus norvegicus) (UniProt P37136); test: Inhibition of rat cortex AChE at 40 uM using acetylthiocholine iodide as substrate measured after 20 mins by Ellman's method relative to control
T2 sequence (whole entry): T1 sequence (P37136 whole entry)

Rattus norvegicus [2] = species on record: Rattus norvegicus; test: Inhibition of rat serum BuChE at 40 uM using butyrylthiocholine as substrate measured after 20 mins by Ellman's method relative to control
[3] = Inhibition of rat serum BuChE using butyrylthiocholine as substrate measured after 20 mins by Ellman's method
[4] = Antioxidant activity assessed as trolox equivalent of AAPH radical scavenging activity preincubated for 10 mins followed by AAPH challenge measured every min for 180 mins by ORAC-FL assay; type: functional
Rattus norvegicus [5] = species on record: Rattus norvegicus; test: Selectivity index, ratio of IC50 for rat serum BuChE to IC50 for rat cortex AChE
[6] = Solubility of the compound in water measured after 24 hrs by HPLC analysis; type: physicochemical
[7] = Metal chelating activity assessed as Zn2+-compound complex formation at 40 uM measured after 1 hr by UV-vis spectroscopic analysis; type: physicochemical
[8] = Cytotoxicity against human SH-SY5Y cells assessed as reduction in cell viability after 24 hrs in presence of Cu2+ ion by MTT assay; type: toxicity, cell-based
[9] = Cytotoxicity against human SH-SY5Y cells assessed as reduction in cell viability at 100 uM measured after 24 hrs by MTT assay; type: toxicity, cell-based
[10] = Metal chelating activity assessed as Fe3+-compound complex formation at 40 uM measured after 1 hr by UV-vis spectroscopic analysis; type: physicochemical
[11] = Permeability of the compound in PBS/EtOH (7:3) buffer measured after 10 hrs by PAMPA assay; type: ADME; conditions: read-out: Peff
[12] = Cytotoxicity against human SH-SY5Y cells assessed as reduction in cell viability at 10 and 30 uM measured after 24 hrs by MTT assay; type: toxicity, cell-based
[13] = Metal chelating activity assessed as Cu2+-compound complex formation at 40 uM measured after 1 hr by UV-vis spectroscopic analysis; type: physicochemical
[14] = Metal chelating activity assessed as Fe2+-compound complex formation at 40 uM measured after 1 hr by UV-vis spectroscopic analysis; type: physicochemical
[15] = Inhibition of cupric ion-induced aggregation of amyloid beta (1 to 42) (unknown origin) at compound:amyloid beta (1 to 42):Cu2+ ratio of 2:1:1 measured after 24 hrs by TEM analysis
SH-SY5Y = test: Neuroprotective activity in human SH-SY5Y cells assessed as protection against Cu2+ induced amyloid-beta (1 to 42) neurotoxicity by measuring increase in cell viability at compound:amyloid-beta (1 to 42):Cu2+ ratio of 2:1:1 after 24 hrs by MTT assay relative to control; type: functional, cell-based
[16] = Inhibition of cupric ion-induced aggregation of amyloid beta (1 to 42) (unknown origin) at 50 uM measured after 24 hrs by dot blot assay
[17] = Antioxidant activity assessed as inhibition of Cu2+-induced CCA […] to 7-hydroxy-CCA by measuring decrease in hydroxyl radical production at 10 uM in presence of ascorbate by fluorescence assay

## CCNC(=S)Nc1cc(-n2cnc(CNC3CCCCC3)c2)ncn1
Acetylcholinesterase
  IC50: 0.424 µM

## CCNC(=S)Nc1cc(-n2cccc2)ncn1
[1]
  inhibition: 13.8%
Acetylcholinesterase
  IC50: > 40 µM

## CCOc1cc(-n2cccn2)ncn1
[1]
  inhibition: 11.8%

## CCNC(=S)Nc1cc(-n2cnc(CNC)c2)ncn1
Acetylcholinesterase
  IC50: 0.251 µM
Rattus norvegicus [2]
  inhibition: 27.3%
[3]
  IC50: > 40 µM
[4]
  Activity (umolequiv/umol): 1.32
Rattus norvegicus [5]
  Ratio IC50: > 159

## CC(C)NC(=S)Nc1cc(-n2cccn2)ncn1
[1]
  inhibition: 36.2%

## CCNC(=S)Nc1cc(-n2cnc(CN3CCCC3)c2)ncn1.Cl
[6]
  solubility at 24 h: 19500 µg/mL

## CCNC(=S)Nc1cc(-n2cnc(CN3CCCC3)c2)ncn1 [listing 1 of 2 here]
[6]
  solubility at 24 h: 340 µg/mL (≈ 1030 µM)
Acetylcholinesterase
  IC50: 0.067 µM
[7]
  Activity: Active
[8]
  Activity: Non-Toxic
[9]
  Activity: Toxic
[10]
  Activity: Active
[11]
  Papp at 10 h: 1.15 ×10⁻⁶ cm/s
[12]
  Activity: Non-Toxic
[3]
  IC50: > 40 µM
[13]
  Activity: Active
[14]
  Activity: Active

## CCNC(=S)Nc1cc(-n2ccnc2C)ncn1
Acetylcholinesterase
  IC50: 6.1 µM

## CCNC(=S)Nc1cc(-n2cncn2)ncn1
[1]
  inhibition: 66.6%
Acetylcholinesterase
  IC50: 1.05 µM

## S=C(NCc1ccccc1)Nc1cc(-n2cccn2)ncn1
[1]
  inhibition: 17.3%

## CCNC(=S)Nc1cc(-n2cnc(C)c2)ncn1
Acetylcholinesterase
  IC50: 3.25 µM

## CCNC(=S)Nc1cc(-n2cnc(CNCc3ccccc3)c2)ncn1
Acetylcholinesterase
  IC50: 0.274 µM
Rattus norvegicus [2]
  inhibition: 48%
[3]
  IC50: > 40 µM
[4]
  Activity (umolequiv/umol): 1.3
Rattus norvegicus [5]
  Ratio IC50: > 146

## CCNC(=S)Nc1cc(-n2cnc(CN(C)C)c2)ncn1
Acetylcholinesterase
  IC50: 0.153 µM
Rattus norvegicus [2]
  inhibition: 7.02%
[11]
  Papp at 10 h: 3 ×10⁻⁶ cm/s
[3]
  IC50: > 40 µM
[4]
  Activity (umolequiv/umol): 1.17
Rattus norvegicus [5]
  Ratio IC50: > 261

## Oc1c(I)cc(Cl)c2cccnc12
[15]
  inhibition: Active

## CCNC(=S)Nc1cc(-n2cnc(CN(C)Cc3ccccc3)c2)ncn1
[6]
  solubility at 24 h: 58 µg/mL (≈ 152 µM)
Acetylcholinesterase
  IC50: 0.181 µM
[11]
  Papp at 10 h: 8.8 ×10⁻⁶ cm/s
[3]
  IC50: 15.2 µM

## CCNC(=O)Nc1cc(-n2cccn2)ncn1
[1]
  inhibition: 22.1%

## CCNC(=S)Nc1cc(-n2cnc(Br)c2)ncn1
Acetylcholinesterase
  IC50: 0.975 µM

## CCNC(=S)Nc1cc(N2CCOCC2)ncn1
[1]
  inhibition: 54.1%
Acetylcholinesterase
  IC50: 23.2 µM

## CCNC(=S)Nc1cc(-n2cnc(CN3CCN(C)CC3)c2)ncn1
Acetylcholinesterase
  IC50: 0.103 µM
Rattus norvegicus [2]
  inhibition: 10.8%
[11]
  Papp at 10 h: 1.95 ×10⁻⁶ cm/s
[3]
  IC50: > 40 µM
[4]
  Activity (umolequiv/umol): 1.23
Rattus norvegicus [5]
  Ratio IC50: > 388

## S=C(NCc1cccc(Cl)c1)Nc1cc(-n2cccn2)ncn1
[1]
  inhibition: 0%

## CCNC(=S)Nc1cc(N2CCCC2)ncn1
[1]
  inhibition: 39.2%
Acetylcholinesterase
  IC50: > 40 µM

## S=C(Nc1cc(-n2cccn2)ncn1)NC1CCCCC1
[1]
  inhibition: 11.2%

## CCNC(=S)Nc1cc(-n2cnc(CN3CCCC3)c2)ncn1 [listing 2 of 2 here]
Rattus norvegicus [2]
  inhibition: 33.5%
SH-SY5Y
  Activity: Active
[16]
  inhibition: Active
[17]
  inhibition: Active
[4]
  Activity (umolequiv/umol): 1.2
Rattus norvegicus [5]
  Ratio IC50: > 597
[15]
  inhibition: Active

## CCNC(=S)Nc1cc(-n2cnc(CN(C)Cc3ccccc3)c2)ncn1.Cl
[6]
  solubility at 24 h: 2740 µg/mL

## CCCN(CCC)Cc1cn(-c2cc(NC(=S)NCC)ncn2)cn1
[6]
  solubility at 24 h: 58 µg/mL (≈ 160 µM)
Acetylcholinesterase
  IC50: 0.204 µM
[7]
  Activity: Active
[8]
  Activity: Non-Toxic
[9]
  Activity: Toxic
[10]
  Activity: Active
[11]
  Papp at 10 h: 7.5 ×10⁻⁶ cm/s
[12]
  Activity: Non-Toxic
[3]
  IC50: > 40 µM
[13]
  Activity: Active
[14]
  Activity: Active

## CCNC(=S)Nc1cc(NCc2ccccc2)ncn1
[1]
  inhibition: 10.9%
Acetylcholinesterase
  IC50: > 40 µM

## CCNC(=S)Nc1ncnc(-n2ccnc2)c1C
[1]
  inhibition: 45.9%
Acetylcholinesterase
  IC50: > 40 µM

## CCNC(=S)Nc1ccnc(-n2ccnc2)n1
[1]
  inhibition: 46.6%
Acetylcholinesterase
  IC50: > 40 µM

## c1ccc(CNc2cc(-n3cccn3)ncn2)cc1
[1]
  inhibition: 10.8%

## Nc1cc(-n2cccn2)ncn1
[1]
  inhibition: 18.9%

## CCNC(=S)Nc1cc(-n2ccnc2)nc(C)n1
[1]
  inhibition: 71.4%
Acetylcholinesterase
  IC50: 8.72 µM
